Measured values as given in ChEMBL document CHEMBL3091363, “Discovery of N-{5-[3-(3-hydroxypiperidin-1-yl)-1,2,4-oxadiazol-5-yl]-4-methyl-1,3-thiazol-2-yl}acetamide (TASP0415914) as an orally potent phosphoinositide 3-kinase γ inhibitor for the treatment of inflammatory diseases” (Bioorg Med Chem, 2013).
One block for each molecule: values may come before it.

Legend:
[1] = target: Phosphatidylinositol 4,5-bisphosphate 3-kinase catalytic subunit gamma isoform (Homo sapiens, UniProt P48736); assay: Inhibition of human PI3Kgamma using PtdIns/PtdSer as substrate after 2 hrs by scintillation counting analysis in presence of gamma[33P]ATP
[2] = tested on: Escherichia coli; assay: Mutagenicity in Escherichia coli WP2uvrA up to 5000 ug/ml by Ames test in absence of rat S9 fraction; type: toxicity, organism-based
[3] = tested on: Salmonella typhimurium; assay: Mutagenicity in Salmonella typhimurium TA98 up to 5000 ug/ml by Ames test in absence of rat S9 fraction; type: toxicity, organism-based; conditions: salmonella enterica subsp. enterica serovar typhimurium
[4] = tested on: Escherichia coli; assay: Mutagenicity in Escherichia coli WP2uvrA up to 5000 ug/ml by Ames test in presence of rat S9 fraction; type: toxicity, organism-based
[5] = tested on: Salmonella typhimurium; assay: Mutagenicity in Salmonella typhimurium TA98 up to 5000 ug/ml by Ames test in presence of rat S9 fraction; type: toxicity, organism-based; conditions: salmonella enterica subsp. enterica serovar typhimurium
[6] = tested on: Salmonella typhimurium; assay: Mutagenicity in Salmonella typhimurium TA100 up to 5000 ug/ml by Ames test in presence of rat S9 fraction; type: toxicity, organism-based; conditions: salmonella enterica subsp. enterica serovar typhimurium
[7] = tested on: Salmonella typhimurium; assay: Mutagenicity in Salmonella typhimurium TA100 up to 5000 ug/ml by Ames test in absence of rat S9 fraction; type: toxicity, organism-based; conditions: salmonella enterica subsp. enterica serovar typhimurium
[8] = Metabolic stability in human liver microsomes assessed as compound remaining at 5 uM after 15 mins by LC-MS/MS analysis; type: ADME; conditions: read-out: Stability
[9] = AUC (0 to 8 hrs) in Sprague-Dawley rat at 30 mg/kg, po; type: ADME, organism-based; parameters: time < 8 hr, dose 30 mg/kg, route oral; conditions: plasma
[10] = target: Phosphatidylinositol 4,5-bisphosphate 3-kinase catalytic subunit gamma isoform (Mus musculus, UniProt Q9JHG7); assay: Inhibition of PI3Kgamma in mouse RAW264.7 cells assessed as C5a-mediated PKB/Akt phosphorylation preincubated for 30 mins followed by C5a stimulation measured after 5 mins; type: cell-based
[11] = Metabolic stability in rat liver microsomes assessed as compound remaining at 5 uM after 15 mins by LC-MS/MS analysis; type: ADME; conditions: read-out: Stability
[12] = Cmax in Sprague-Dawley rat at 30 mg/kg, po; type: ADME, organism-based; parameters: dose 30 mg/kg, route oral; conditions: in vivo
[13] = tested on: Salmonella typhimurium; assay: Mutagenicity in Salmonella typhimurium TA98 up to 2000 ug/ml by Ames fluctuation test; type: toxicity, organism-based; conditions: salmonella enterica subsp. enterica serovar typhimurium
[14] = tested on: Salmonella typhimurium; assay: Mutagenicity in Salmonella typhimurium TA100 up to 2000 ug/ml by Ames fluctuation test; type: toxicity, organism-based; conditions: salmonella enterica subsp. enterica serovar typhimurium
[15] = Metabolic stability in human hepatocytes assessed as compound remaining at 5 uM after 1 hr by LC-MS/MS analysis; type: ADME, cell-based, Hepatocyte; conditions: read-out: Stability
[16] = Metabolic stability in rat hepatocytes assessed as compound remaining at 5 uM after 1 hr by LC-MS/MS analysis; type: ADME, cell-based, Hepatocyte; conditions: read-out: Stability
[17] = target: T1, Cytochrome P450 1A2 (Homo sapiens, UniProt P05177); assay: Inhibition of CYP1A2 (unknown origin) up to 10 uM; type: ADME
T1 sequence (P05177 whole entry): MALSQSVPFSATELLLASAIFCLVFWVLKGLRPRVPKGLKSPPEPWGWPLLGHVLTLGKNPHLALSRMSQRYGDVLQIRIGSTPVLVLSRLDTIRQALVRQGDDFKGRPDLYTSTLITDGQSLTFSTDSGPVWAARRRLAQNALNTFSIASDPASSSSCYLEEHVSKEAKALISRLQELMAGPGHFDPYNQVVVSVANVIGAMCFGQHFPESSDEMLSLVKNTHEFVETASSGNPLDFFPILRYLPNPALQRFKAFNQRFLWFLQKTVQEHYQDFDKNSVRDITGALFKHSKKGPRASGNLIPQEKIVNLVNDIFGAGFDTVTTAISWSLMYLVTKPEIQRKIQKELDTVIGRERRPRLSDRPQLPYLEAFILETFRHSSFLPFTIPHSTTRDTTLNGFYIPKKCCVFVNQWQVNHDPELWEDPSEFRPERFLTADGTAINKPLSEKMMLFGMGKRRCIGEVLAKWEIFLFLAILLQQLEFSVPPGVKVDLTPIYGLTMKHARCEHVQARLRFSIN

[18] = target: Cytochrome P450 2D6 (Homo sapiens, UniProt P10635); assay: Inhibition of CYP2D6 (unknown origin) up to 10 uM; type: ADME
[19] = tested on: Mus musculus; assay: Antiarthritic activity in po dosed DBA/1 mouse assessed as suppression of acute collagen-induced arthritis administered as bid for 14 days; type: functional, organism-based
[20] = target: Cytochrome P450 2C19 (Homo sapiens, UniProt P33261); assay: Inhibition of CYP2C19 (unknown origin) up to 10 uM; type: ADME
[21] = target: Cytochrome P450 3A4 (Homo sapiens, UniProt P08684); assay: Inhibition of CYP3A4 (unknown origin) up to 10 uM; type: ADME
[22] = target: Cytochrome P450 2C9 (Homo sapiens, UniProt P11712); assay: Inhibition of CYP2C9 (unknown origin) up to 10 uM; type: ADME
Sequence of Cytochrome P450 2C9 (P11712 whole entry): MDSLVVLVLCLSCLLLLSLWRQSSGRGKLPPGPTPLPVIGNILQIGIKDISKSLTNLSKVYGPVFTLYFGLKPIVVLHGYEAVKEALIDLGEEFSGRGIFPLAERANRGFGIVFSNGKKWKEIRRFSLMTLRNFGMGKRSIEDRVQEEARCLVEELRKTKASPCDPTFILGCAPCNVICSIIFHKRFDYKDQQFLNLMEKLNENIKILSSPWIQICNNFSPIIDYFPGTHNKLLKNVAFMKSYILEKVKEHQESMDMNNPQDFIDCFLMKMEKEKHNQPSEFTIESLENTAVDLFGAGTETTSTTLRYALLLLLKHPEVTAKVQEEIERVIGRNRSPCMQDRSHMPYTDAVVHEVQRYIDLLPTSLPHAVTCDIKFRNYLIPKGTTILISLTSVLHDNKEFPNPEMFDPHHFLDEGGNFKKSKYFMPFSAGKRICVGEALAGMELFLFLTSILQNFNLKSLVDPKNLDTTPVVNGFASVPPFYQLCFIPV

Sequence of Phosphatidylinositol 4,5-bisphosphate 3-kinase catalytic subunit gamma isoform (Homo sapiens, UniProt P48736) (P48736 whole entry, canonical isoform): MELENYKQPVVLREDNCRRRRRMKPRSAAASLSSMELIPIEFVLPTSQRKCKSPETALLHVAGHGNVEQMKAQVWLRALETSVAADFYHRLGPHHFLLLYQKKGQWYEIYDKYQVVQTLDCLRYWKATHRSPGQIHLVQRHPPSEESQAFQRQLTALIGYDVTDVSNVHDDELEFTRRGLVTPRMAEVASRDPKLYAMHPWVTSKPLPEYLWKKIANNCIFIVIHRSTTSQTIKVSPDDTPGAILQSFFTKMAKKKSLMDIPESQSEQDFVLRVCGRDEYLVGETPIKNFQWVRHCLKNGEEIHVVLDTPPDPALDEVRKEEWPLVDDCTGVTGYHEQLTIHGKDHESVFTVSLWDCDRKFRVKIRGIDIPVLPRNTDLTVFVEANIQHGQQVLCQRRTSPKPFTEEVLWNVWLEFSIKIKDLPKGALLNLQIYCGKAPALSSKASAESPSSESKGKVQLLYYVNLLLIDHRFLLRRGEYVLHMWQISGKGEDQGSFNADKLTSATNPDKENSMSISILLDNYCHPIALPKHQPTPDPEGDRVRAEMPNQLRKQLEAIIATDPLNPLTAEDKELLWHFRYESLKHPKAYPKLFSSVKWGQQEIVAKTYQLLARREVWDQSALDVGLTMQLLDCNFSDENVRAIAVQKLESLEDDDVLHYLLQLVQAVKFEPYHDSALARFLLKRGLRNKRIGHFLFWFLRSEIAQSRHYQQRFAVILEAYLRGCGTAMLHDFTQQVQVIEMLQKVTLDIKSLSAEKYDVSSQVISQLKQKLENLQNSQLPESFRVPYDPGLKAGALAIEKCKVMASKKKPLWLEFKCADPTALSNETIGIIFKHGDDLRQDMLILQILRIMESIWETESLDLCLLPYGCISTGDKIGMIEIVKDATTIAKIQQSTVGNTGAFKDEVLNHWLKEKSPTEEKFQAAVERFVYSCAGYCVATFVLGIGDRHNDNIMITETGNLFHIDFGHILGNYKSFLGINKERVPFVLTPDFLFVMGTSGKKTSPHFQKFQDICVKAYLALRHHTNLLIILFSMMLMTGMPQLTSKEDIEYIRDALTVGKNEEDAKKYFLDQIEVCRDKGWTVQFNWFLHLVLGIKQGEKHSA
Sequence of Phosphatidylinositol 4,5-bisphosphate 3-kinase catalytic subunit gamma isoform (Mus musculus, UniProt Q9JHG7) (Q9JHG7 whole entry, canonical isoform): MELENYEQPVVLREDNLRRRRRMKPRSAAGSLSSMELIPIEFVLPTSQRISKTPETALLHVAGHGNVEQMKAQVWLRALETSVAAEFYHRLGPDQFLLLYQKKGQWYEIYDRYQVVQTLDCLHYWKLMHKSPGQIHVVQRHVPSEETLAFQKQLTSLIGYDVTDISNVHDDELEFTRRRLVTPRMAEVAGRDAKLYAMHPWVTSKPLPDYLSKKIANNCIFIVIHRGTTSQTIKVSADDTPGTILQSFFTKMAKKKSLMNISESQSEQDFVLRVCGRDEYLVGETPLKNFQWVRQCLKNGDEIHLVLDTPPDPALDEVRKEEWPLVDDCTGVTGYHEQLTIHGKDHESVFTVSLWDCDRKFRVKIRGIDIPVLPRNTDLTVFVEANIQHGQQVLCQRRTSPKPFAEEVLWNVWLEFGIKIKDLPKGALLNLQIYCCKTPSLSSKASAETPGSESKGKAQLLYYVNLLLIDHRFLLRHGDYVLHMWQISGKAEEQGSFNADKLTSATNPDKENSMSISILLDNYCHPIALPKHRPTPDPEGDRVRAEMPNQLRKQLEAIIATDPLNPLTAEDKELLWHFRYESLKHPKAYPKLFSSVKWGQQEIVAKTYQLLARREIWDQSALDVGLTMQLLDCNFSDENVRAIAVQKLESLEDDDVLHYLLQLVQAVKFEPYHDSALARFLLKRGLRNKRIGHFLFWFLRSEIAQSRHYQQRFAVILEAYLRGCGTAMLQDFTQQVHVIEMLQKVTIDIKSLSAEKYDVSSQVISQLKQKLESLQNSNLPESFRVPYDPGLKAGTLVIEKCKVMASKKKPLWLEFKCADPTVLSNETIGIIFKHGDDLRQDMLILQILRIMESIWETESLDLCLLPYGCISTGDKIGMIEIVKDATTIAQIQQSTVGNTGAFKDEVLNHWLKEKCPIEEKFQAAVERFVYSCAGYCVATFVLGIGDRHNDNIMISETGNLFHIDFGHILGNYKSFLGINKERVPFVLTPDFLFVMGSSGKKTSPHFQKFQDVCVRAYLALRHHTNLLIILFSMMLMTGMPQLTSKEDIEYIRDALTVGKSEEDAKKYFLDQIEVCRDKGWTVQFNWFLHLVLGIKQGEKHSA
Sequence of Cytochrome P450 3A4 (P08684 whole entry): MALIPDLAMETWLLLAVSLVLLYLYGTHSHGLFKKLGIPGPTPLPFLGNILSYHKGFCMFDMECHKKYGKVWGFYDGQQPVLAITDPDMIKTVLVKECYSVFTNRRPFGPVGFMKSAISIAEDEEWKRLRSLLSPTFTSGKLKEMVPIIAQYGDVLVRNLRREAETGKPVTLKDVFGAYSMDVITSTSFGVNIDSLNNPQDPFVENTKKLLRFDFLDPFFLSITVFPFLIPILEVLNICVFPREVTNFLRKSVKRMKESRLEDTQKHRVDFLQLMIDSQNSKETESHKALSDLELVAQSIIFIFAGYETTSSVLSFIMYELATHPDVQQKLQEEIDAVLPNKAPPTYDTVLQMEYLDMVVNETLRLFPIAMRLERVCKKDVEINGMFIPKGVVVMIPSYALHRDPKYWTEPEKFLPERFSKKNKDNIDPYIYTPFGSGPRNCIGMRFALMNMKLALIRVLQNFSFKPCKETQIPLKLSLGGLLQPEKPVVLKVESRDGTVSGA
Sequence of Cytochrome P450 2C19 (P33261 whole entry): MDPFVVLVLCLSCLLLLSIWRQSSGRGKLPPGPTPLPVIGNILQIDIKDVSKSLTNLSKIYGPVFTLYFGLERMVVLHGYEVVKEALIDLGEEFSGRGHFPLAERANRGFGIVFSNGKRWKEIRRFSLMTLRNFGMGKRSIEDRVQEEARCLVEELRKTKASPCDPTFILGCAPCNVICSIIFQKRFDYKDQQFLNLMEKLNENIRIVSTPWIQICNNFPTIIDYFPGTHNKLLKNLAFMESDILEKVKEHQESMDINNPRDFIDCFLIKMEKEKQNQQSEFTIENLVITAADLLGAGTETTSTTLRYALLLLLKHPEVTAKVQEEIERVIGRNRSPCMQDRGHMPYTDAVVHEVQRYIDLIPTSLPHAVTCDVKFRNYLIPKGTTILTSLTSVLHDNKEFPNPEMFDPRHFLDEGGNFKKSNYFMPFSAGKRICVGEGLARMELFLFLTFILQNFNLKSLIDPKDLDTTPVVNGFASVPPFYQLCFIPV
Sequence of Cytochrome P450 2D6 (P10635 whole entry): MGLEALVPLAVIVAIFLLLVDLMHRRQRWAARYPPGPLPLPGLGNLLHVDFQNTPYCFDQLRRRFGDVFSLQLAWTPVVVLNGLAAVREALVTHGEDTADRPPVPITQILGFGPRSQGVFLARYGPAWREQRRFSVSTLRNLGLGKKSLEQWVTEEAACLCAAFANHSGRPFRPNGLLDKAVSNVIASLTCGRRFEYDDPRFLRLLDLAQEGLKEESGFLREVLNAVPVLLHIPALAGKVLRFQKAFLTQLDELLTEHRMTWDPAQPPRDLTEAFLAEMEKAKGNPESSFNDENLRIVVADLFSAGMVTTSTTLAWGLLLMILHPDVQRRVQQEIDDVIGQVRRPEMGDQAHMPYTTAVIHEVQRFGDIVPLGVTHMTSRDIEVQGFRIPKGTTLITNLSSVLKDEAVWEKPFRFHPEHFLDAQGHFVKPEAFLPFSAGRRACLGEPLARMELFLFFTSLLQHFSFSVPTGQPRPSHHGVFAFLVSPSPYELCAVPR

SMILES: CC(=O)Nc1nc(C)c(-c2nc(CCO)no2)s1
IC50 [1]: 158 nM

SMILES: CC(=O)Nc1nc(C)c(-c2nc(CCCO)no2)s1
IC50 [1]: 121 nM

SMILES: CC(=O)Nc1nc(C)c(-c2cnc(C(C)(C)C)o2)s1
Activity [2]: Non-toxic
Activity [3]: Non-toxic
Activity [4]: Non-toxic
Activity [5]: Non-toxic
Activity [6]: Non-toxic
Activity [7]: Non-toxic

SMILES: CC(=O)Nc1nc(C)c(-c2nc(CC(F)(F)F)no2)s1
remaining at 0.25 h, 5 µM [8]: 79.1%
AUC(0-t) at 8 h [9]: 1180 ng·h/mL
IC50 [10]: 278 nM
remaining at 0.25 h, 5 µM [11]: 72.9%
Cmax [12]: 345 ng/mL
IC50 [1]: 28 nM

SMILES: CC(=O)Nc1nc(C)c(-c2nc(CCC(C)(C)O)no2)s1
IC50 [1]: 203 nM

SMILES: CC(=O)Nc1nc(C)c(-c2nc(N3CCOCC3)no2)s1
IC50 [1]: 100 nM

SMILES: CC(=O)Nc1nc(C)c(-c2nc(CC(C)(C)CO)no2)s1
remaining at 0.25 h, 5 µM [8]: 102%
AUC(0-t) at 8 h [9]: 92 ng·h/mL
remaining at 1 h, 5 µM [15]: 9.3%
IC50 [10]: 191 nM
remaining at 0.25 h, 5 µM [11]: 94%
Cmax [12]: 38 ng/mL
IC50 [1]: 7.2 nM
remaining at 1 h, 5 µM [16]: 11.3%

SMILES: CC(=O)Nc1nc(C)c(-c2nc(C(C)(C)CCO)no2)s1
IC50 [1]: 62 nM

SMILES: CC(=O)Nc1nc(C)c(-c2nc(N3CCCC(O)C3)no2)s1 (stereo not drawn)
remaining at 0.25 h, 5 µM [8]: 96.9%
Activity [2]: Non-toxic
AUC(0-t) at 8 h [9]: 10800 ng·h/mL
inhibition (INH) [17]: Not Active
remaining at 1 h, 5 µM [15]: 75.7%
Activity [3]: Non-toxic
Activity [4]: Non-toxic
Activity [13]: Non-toxic
IC50 [10]: 294 nM
remaining at 0.25 h, 5 µM [11]: 97.1%
Activity [5]: Non-toxic
Activity [14]: Non-toxic
Cmax [12]: 3920 ng/mL
inhibition (INH) [18]: Not Active
Activity [6]: Non-toxic
IC50 [1]: 29 nM
Activity [19]: Dose-dependent effect
inhibition (INH) [20]: Not Active
Activity [7]: Non-toxic
inhibition (INH) [21]: Not Active
inhibition (INH) [22]: Not Active
remaining at 1 h, 5 µM [16]: 62.1%

SMILES: CC(=O)Nc1nc(C)c(-c2nc(C(C)(C)CO)no2)s1
IC50 [1]: 52 nM

SMILES: CC(=O)Nc1nc(C)c(-c2nc(CC(C)(C)O)no2)s1
IC50 [1]: 68 nM

SMILES: Cc1nc(N)sc1-c1nc(N2CCCC(O)C2)no1 (stereo not drawn)
Activity [2]: Non-toxic
Activity [3]: Non-toxic
Activity [4]: Non-toxic
Activity [13]: Non-toxic
Activity [5]: Non-toxic
Activity [14]: Non-toxic
Activity [6]: Non-toxic
Activity [7]: Non-toxic

The remaining molecules from weak to strong by IC50 [1], led by results:

IC50 [1]: 81 nM
SMILES: Cc1nc(N)sc1-c1cnc(C(C)(C)C)o1
Activity [2]: Toxic
Activity [3]: Toxic
Activity [4]: Toxic
Activity [13]: Toxic
Activity [5]: Toxic
Activity [14]: Toxic
Activity [6]: Toxic
Activity [7]: Toxic

IC50 [1]: 68 nM
SMILES: Cc1nc(N)sc1-c1nc(C(C)(C)C)no1
Activity [2]: Non-toxic
Activity [3]: Non-toxic
Activity [4]: Non-toxic
Activity [13]: Non-toxic
Activity [5]: Non-toxic
Activity [14]: Non-toxic
Activity [6]: Non-toxic
Activity [7]: Non-toxic

IC50 [1]: 68 nM
SMILES: COCC(C)(C)Cc1noc(-c2sc(NC(C)=O)nc2C)n1

IC50 [10]: 558 nM
IC50 [1]: 57 nM
SMILES: CC(=O)Nc1nc(C)c(-c2nc(C3CCOC3)no2)s1 (stereo not drawn)

remaining at 0.25 h, 5 µM [8]: 94.1%
AUC(0-t) at 8 h [9]: 10900 ng·h/mL
remaining at 1 h, 5 µM [15]: 35.2%
IC50 [10]: 155 nM
remaining at 0.25 h, 5 µM [11]: 91.5%
Cmax [12]: 7800 ng/mL
IC50 [1]: 17 nM
remaining at 1 h, 5 µM [16]: 20.9%
SMILES: CC(=O)Nc1nc(C)c(-c2nc(CC(C)(C)C(C)O)no2)s1 (stereo not drawn)

IC50 [10]: 231 nM
IC50 [1]: 14 nM
SMILES: CC(=O)Nc1nc(C)c(-c2nc(C(C)(C)C)no2)s1
